{"source": "patent US6610677B2", "about": "“Pyrazole compounds useful as protein kinase inhibitors” (Vertex Pharmaceuticals Incorporated, priority 2000, dated 2003)", "data": [{"molecular_target": "T1, GSK-3β (AA 1-420) (Homo sapiens, UniProt P49841)", "T1 construct": "GSK-3β (AA 1-420)", "T1 sequence (P49841 whole entry, the tested form may be a part)": "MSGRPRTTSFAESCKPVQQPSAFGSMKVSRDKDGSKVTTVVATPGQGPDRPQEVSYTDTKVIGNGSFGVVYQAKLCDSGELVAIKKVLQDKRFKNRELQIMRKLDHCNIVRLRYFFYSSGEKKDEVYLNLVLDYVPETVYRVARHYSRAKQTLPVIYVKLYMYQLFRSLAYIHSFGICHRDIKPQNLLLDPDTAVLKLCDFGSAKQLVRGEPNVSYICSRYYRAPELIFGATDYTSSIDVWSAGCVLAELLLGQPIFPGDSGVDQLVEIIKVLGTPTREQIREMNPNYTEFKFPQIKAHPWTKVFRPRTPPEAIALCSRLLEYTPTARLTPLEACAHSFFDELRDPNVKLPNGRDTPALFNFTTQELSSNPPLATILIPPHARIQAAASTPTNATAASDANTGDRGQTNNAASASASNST", "experiment": "Ki determination for the inhibition of GSK-3 (coupled enzyme system)", "assay_type": "biochemical", "conditions": "20 μM ATP, 300 μM peptide, 20 nM GSK-3β, 30° C", "protocol": "Compounds were screened for their ability to inhibit GSK-3β (AA 1-420) activity using a standard coupled enzyme system (Fox et al. (1998) Protein Sci. 7, 2249). Reactions were carried out in a solution containing 100 mM HEPES (pH 7.5), 10 mM MgCl2, 25 mM NaCl, 300 μM NADH, 1 mM DTT and 1.5% DMSO. Final substrate concentrations in the assay were 20 μM ATP (Sigma Chemicals, St Louis, Mo.) and 300 μM peptide (HSSPHQS(PO3H2)EDEEE, American Peptide, Sunnyvale, Calif.). Reactions were carried out at 30° C. and 20 nM GSK-3β. Final concentrations of the components of the coupled enzyme system were 2.5 mM phosphoenolpyruvate, 300 μM NADH, 30 μg/ml pyruvate kinase and 10 μg/ml lactate dehydrogenase.\nAn assay stock buffer solution was prepared containing all of the reagents listed above with the exception of ATP and the test compound of interest. The assay stock buffer solution (175 μl) was incubated in a 96 well plate with 5 μl of the test compound of interest at final concentrations spanning 0.002 μM to 30 μM at 30° C. for 10 min. Typically, a 12 point titration was conducted by preparing serial dilutions (from 10 mM compound stocks) with DMSO of the test compounds in daughter plates. The reaction was initiated by the addition of 20 μl of ATP (final concentration 20 μM). Rates of reaction were obtained using a Molecular Devices Spectramax plate reader (Sunnyvale, Calif.) over 10 min at 30° C. The Ki values were determined from the rate data as a function of inhibitor concentration.", "units": {"Ki": "nM"}, "values": [{"smiles": "FC(F)(F)c1ccccc1-c1nc(Nc2n[nH]c3ccccc23)cc(-c2ccccc2Cl)n1", "note": "[II-23, [6-(2-Chlorophenyl)-2-(2-trifluoromethyl-phenyl)-pyrimidin-4-yl]-(1H-indazol-3-yl)-amine]", "Ki": "< 100"}, {"smiles": "CC(C)NC(=O)c1cc(Nc2nc(-c3ccccc3)nc3ccccc23)[nH]n1", "note": "[III-81]", "Ki": "1000 to 20000"}, {"smiles": "Fc1ccc(-c2nc(Nc3n[nH]c4c(F)cc(F)cc34)c3ccccc3n2)c(C(F)(F)F)c1", "note": "[II-84, (5,7-Difluoro-1H-indazol-3-yl)-[2-(4-fluoro-2-trifluoromethyl-phenyl)-quinazolin-4-yl]-amine]", "Ki": "< 100"}, {"smiles": "Fc1cc(F)c2[nH]nc(Nc3nc(-c4ccccc4Cl)nc4c3CCCCC4)c2c1", "note": "[II-6, [2-(2-Chloro-phenyl)-6,7,8,9-tetrahydro-5H-cycloheptapyrimidin-4-yl]-(5,7-difluoro-1H-indazol-3-yl)-amine]", "Ki": "< 100"}, {"smiles": "FC(F)(F)c1ccccc1-c1nc(Nc2n[nH]cc2-c2cccs2)c2ccccc2n1", "note": "[II-47, [4-(Thiophen-2-yl)-2H-pyrazol-3-yl]-[2-(2-trifluoromethylphenyl)-quinazolin-4-yl]-amine]", "Ki": "1000 to 20000"}, {"smiles": "FC(F)(F)c1ccccc1-c1nc(Nc2n[nH]c3c2CCCC3)c2ccccc2n1", "note": "[II-97, (4,5,6,7-Tetrahydro-1H-indazol-3-yl)-[2-(2-trifluoromethyl-phenyl)-quinazolin-4-yl]-amine]", "Ki": "100 to 1000"}, {"smiles": "FC(F)(F)c1ccc2[nH]nc(Nc3nc(-c4ccccc4)nc4c3CCCC4)c2c1", "note": "[III-128, (2-Phenyl-5,6,7,8-tetrahydroquinazolin-4-yl)-(5-trifluoromethyl-1H-indazol-3-yl)-amine]", "Ki": "< 100"}, {"smiles": "NC(=O)c1cc(Nc2nc(-c3ccccc3)nc3ccccc23)[nH]n1", "note": "[III-100, (5-Carbamoyl-2H-pyrazol-3-yl)-(2-phenyl-quinazolin-4-yl)-amine]", "Ki": "1000 to 20000"}, {"smiles": "Fc1ccc2c(Nc3nc(-c4ccccc4C(F)(F)F)nc4ccccc34)n[nH]c2c1", "note": "[II-124, (6-Fluoro-1H-indazol-3-yl)-[2-(2-trifluoromethyl-phenyl)-quinazolin-4-yl]-amine]", "Ki": "< 100"}, {"smiles": "Fc1cc(F)c2[nH]nc(Nc3nc(-c4ccc(Cl)cc4Cl)nc4ccccc34)c2c1", "note": "[II-87, [2-(2,4-Dichloro-phenyl)-quinazolin-4-yl]-(5,7-Difluoro-1H-indazol-3-yl)-amine]", "Ki": "< 100"}, {"smiles": "FC(F)(F)c1ccccc1-c1nc2c(c(Nc3n[nH]c4ccccc34)n1)CCCC2", "note": "[II-17, (1H-indazol-3-yl)-[2-(2-trifluoromethyl-phenyl)-5,6,7,8-tetrahydroquinazolin-4-yl]-amine]", "Ki": "< 100"}, {"smiles": "Fc1cccc2[nH]nc(Nc3nc(-c4ccccc4C(F)(F)F)nc4ccccc34)c12", "note": "[II-89, (4-Fluoro-1H-indazol-3-yl)-[2-(2-trifluoromethyl-phenyl)-quinazolin-4-yl]-amine]", "Ki": "1000 to 20000"}, {"smiles": "COc1ccc(-n2nc3c(Nc4nc(-c5ccccc5)nc5ccccc45)n[nH]c3cc2=O)cc1", "note": "[III-136, [5-(4-Methoxy-phenyl)-6-oxo-5,6-dihydro-1H-pyrazolo[4,3-c]pyridazin-3-yl]-(2-phenyl-quinazolin-4-yl)-amine]", "Ki": "100 to 1000"}, {"smiles": "Fc1ccc2[nH]nc(Nc3nc(-c4ccccc4C(F)(F)F)nc4c3CCN(Cc3ccccc3)C4)c2c1", "note": "[II-18]", "Ki": "< 100"}, {"smiles": "Fc1cc(F)c2[nH]nc(Nc3nc(-c4ccc(C(F)(F)F)cc4C(F)(F)F)nc4ccccc34)c2c1", "note": "[II-83, [2-(2,4-Bis-trifluoromethyl-phenyl)-quinazolin-4-yl]-(5,7-difluoro-1H-indazol-3-yl)-amine]", "Ki": "< 100"}, {"smiles": "Fc1cccc2c(Nc3nc(-c4ccccc4Cl)nc4c3CCCCC4)n[nH]c12", "note": "[II-4, [2-(2-Chloro-phenyl)-6,7,8,9-tetrahydro-5H-cycloheptapyrimidin-4-yl]-(7-fluoro-1H-indazol-3-yl)-amine]", "Ki": "< 100"}, {"smiles": "Cc1ccc(NC(=O)c2cc(Nc3nc(-c4ccccc4)nc4ccccc34)[nH]n2)cc1", "note": "[III-95, (2-Phenyl-quinazolin-4-yl)-(5-p-tolylcarbamoyl-2H-pyrazol-3-yl)-amine]", "Ki": "1000 to 20000"}, {"smiles": "Fc1c(C(F)(F)F)ccc2c(Nc3nc(-c4ccccc4C(F)(F)F)nc4ccccc34)n[nH]c12", "note": "[II-81, (7-Fluoro-6-trifluoromethyl-1H-indazol-3-yl)-[2-(2-trifluoromethyl-phenyl)-quinazolin-4-yl]-amine]", "Ki": "< 100"}, {"smiles": "Fc1cc(F)c2[nH]nc(Nc3nc(-c4cc(C(F)(F)F)ccc4Cl)nc4ccccc34)c2c1", "note": "[II-88, [2-(2-Chloro-5-trifluoromethyl-phenyl)-quinazolin-4-yl]-(5,7-Difluoro-1H-indazol-3-yl)-amine]", "Ki": "< 100"}, {"smiles": "COCCNC(=O)c1cc(Nc2nc(-c3ccccc3)nc3ccccc23)[nH]n1", "note": "[III-83]", "Ki": "1000 to 20000"}, {"smiles": "Cc1nc(-c2ccccc2Cl)nc(Nc2n[nH]c3c(F)cccc23)c1C", "note": "[II-30, [2-(2-Chlorophenyl)-5,6-dimethyl-pyrimidin-4-yl]-(7-fluoro-1H-indazol-3-yl)-amine]", "Ki": "< 100"}, {"smiles": "Fc1cccc2c(Nc3nc(-c4ccccc4C(F)(F)F)nc4ccccc34)n[nH]c12", "note": "[II-60, (7-Fluoro-1H-indazol-3-yl)-[2-(2-trifluoromethyl-phenyl)-quinazolin-4-yl]-amine]", "Ki": "< 100"}, {"smiles": "Fc1cc(F)c2[nH]nc(Nc3nc(-c4ccccc4C(F)(F)F)cc4ccccc34)c2c1", "note": "[Compound V-3, (5,7-Difluoro-1H-indazol-3-yl)-[3-(2-trifluoromethyl-phenyl)-isoquinolin-1-yl]-amine]", "Ki": "< 100"}, {"smiles": "FC(F)(F)c1ccccc1-c1nc(Nc2n[nH]c3c(C(F)(F)F)cccc23)c2ccccc2n1", "note": "[II-68, (7-Trifluoromethyl-1H-indazol-3-yl)-[2-(2-trifluoromethyl-phenyl)-quinazolin-4-yl]-amine]", "Ki": "1000 to 20000"}, {"smiles": "Fc1cc(F)c2[nH]nc(Nc3nc(-c4ccccc4C(F)(F)F)nc4c3CCC4)c2c1", "note": "[II-115, (5,7-Difluoro-1H-indazol-3-yl)-[2-(2-trifluoromethyl-phenyl)-6,7-dihydro-5H-cyclopentapyrimidin-4-yl]-amine]", "Ki": "< 100"}, {"smiles": "c1ccc(-c2cc(Nc3nc[nH]n3)c3ccccc3n2)cc1", "note": "[IX-176, (2-Phenyl-quinolin-4-yl)-(1H-[1,2,4]triazol-3-yl)-amine]", "Ki": "1000 to 20000"}, {"smiles": "CC(C)CNC(=O)c1cc(Nc2nc(-c3ccccc3)nc3ccccc23)[nH]n1", "note": "[III-91, (5-Isobutylcarbamoyl-2H-pyrazol-3-yl)-(2-phenyl-quinazolin-4-yl)-amine]", "Ki": "1000 to 20000"}, {"smiles": "O=c1cc2[nH]nc(Nc3nc(-c4ccccc4C(F)(F)F)nc4ccccc34)c2nn1-c1ccccc1", "note": "[II-101, (6-Oxo-5-phenyl-5,6-dihydro-1H-pyrazolo[4,3-c]pyridazin-3-yl)-[2-(2-trifluoromethyl-phenyl)-quinazolin-4-yl]-amine]", "Ki": "100 to 1000"}, {"smiles": "FC(F)(F)c1ccccc1-c1nc(Nc2n[nH]cc2-c2ccccc2)c2ccccc2n1", "note": "[II-48, (4-Phenyl-2H-pyrazol-3-yl)-[2-(2-trifluoromethylphenyl)-quinazolin-4-yl]-amine]", "Ki": "1000 to 20000"}, {"smiles": "O=c1cc2[nH]nc(Nc3nc(-c4ccccc4)nc4ccccc34)c2nn1-c1cccc(C(F)(F)F)c1", "note": "[III-138, [6-Oxo-5-(3-trifluoromethyl-phenyl)-5,6-dihydro-1H-pyrazolo[4,3-c]pyridazin-3-yl]-(2-phenyl-quinazolin-4-yl)-amine]", "Ki": "100 to 1000"}]}]}
